Experimental data as given in US20070265211A1, “Novel composition and method effective in inhibiting the atherogenic process” (priority 2006, published 2007).

What was measured:
[1] = tested on: vascular smooth muscle cells (VSMC) from guinea-pig aorta; settings: 0.5-2.0 mM ascorbate; direct and matrix-mediated effects; cited from earlier work
[2] = tested on: Human aortic smooth muscle cells; assay: SMC proliferation by [3H]-thymidine incorporation into cellular DNA; assay type: cell-based; settings: physiologically relevant concentration
Experimental: Human aortic smooth muscle cells (SMC, obtained from Clonetics) were cultured in DMEM (Dulbecco's modified Eagle's medium), supplemented with 10% fetal bovine serum, penicillin (100 μg/ml) and streptomycin (100 μg/ml) at 37° C. in a humidified atmosphere containing 5% CO2, and were split 1:3 to 1:5 upon reaching the confluence. SMC at passages 5-8 were used in experiments. […] SMC proliferation was assayed by [3H]-thymidine incorporation into cellular genetic material. Cells were plated in 24-well plates at a density of 10,000 cells per cm^2 in 0.5 ml of DMEM supplemented with 2% FBS. The attached cells were supplied every 24 hours with fresh growth medium plus additions, as specified in the protocols. Test agents included the nutrient mixture and individual components. […] Cell proliferation was measured 3 days later by the addition of 1 pCi/ml [3H]-thymidine to the cell culture for the last 4 hours of the experiment. […] Samples were mixed with scintillation fluid and counted using a liquid scintillation counter (model 6500 LS, Beckman Instruments, USA). Cellular DNA-incorporated radioactivity was expressed as d/min per well. In some wells cells were stained with Hematoxylin/Eosin and cell nucleus were counted under microscope in standard way chosen views covering total 65% of the well area. Cell counting data expressed as cell number per well.

SMILES | Proliferation of VSMC from guinea-pig aorta [1] | Cultured human aortic SMC growth rate (rate of cellular DNA synthesis) [2]
O=C1O[C@H]([C@@H](O)CO)C(O)=C1O [ascorbate, ascorbic acid] | dose-dependent decreased proliferation | 
O=C(O[C@@H]1Cc2c(O)cc(O)cc2O[C@@H]1c1cc(O)c(O)c(O)c1)c1cc(O)c(O)c(O)c1 [epigallocatechin gallate] |  | significantly reduced
